Source: patent US9333240B2, “Compounds for improving nutritional status, cognition and survival” (YISSUM RESEARCH DEVELOPMENT COMPANY OF THE HEBREW …, priority 2005, dated 2016)

Experiments:
[1] = test system: Bcl-2, Bax, PARP; experiment: Hippocampal apoptosis proteins by RT-PCR and immunoblotting; type: in vivo, mice; conditions: AICAR treatment (1-2 mM), RT-PCR and immunoblotting
Experimental: Total hippocampal RNA was extracted using […] reagent according to the manufacturer's instructions and reverse transcribed. Primers specific for OBRlong were […] NO: 1) and […] NO: 6), for […] NO: 2), and […] NO: 7), for BAX […] NO: 3) and […] NO: 8) for Bcl-2 […] NO: 4) and […] NO: 9) and for actin […] NO: 5) and […] NO: 10). […] Total hippocampal Protein was extracted using […] reagent. Aliquots of the clarified lysates containing […] were denatured in Laemmli sample buffer (6% SDS 30%, glycerol, 0.02% bromophenol blue, 200 mM Tris-HCl (pH 6.8), and 250 mM-mercaptoethanol, at 95° C. for 5 min. The samples were resolved by SDS-PAGE (10% acrylamide), and blotted onto nitrocellulose membrane. Non-specific binding in a Western blot analysis was prevented by immersing the membranes in blocking buffer (5% nonfat dry milk in Tris-buffer saline-Tween 20 (TBS-T)), for 2 h at room temperature. The membranes were then exposed to the indicated antibodies diluted 1:1000 for 1 h at room temperature. AMPK, phospho-AMPK and PARP were obtained from Cell Signaling. Bax, bcl-2 and actin were from Santa Cruz Biotechnology Inc. (Santa Cruz, Calif.). The blots were rinsed in TBS-T and then incubated with horseradish peroxidase-conjugated goat anti-mouse antibodies 1:10,000 for 1 h at room temperature. Antibody-antigen complexes were visualized by detecting enhanced chemiluminescence with X-ray film.

[2] = test system: BrdU-immunoreactive cells in the dentate gyrus; experiment: BrdU labelling of newly generated cells in the dentate gyrus of mice; type: in vivo; conditions: 25 nM AICAR once daily for 10 days vs saline
Experimental: In order to determine what is “low level activation” varying doses of the AMPK pathway activator may be administered to test animals in the final formulation intended to be used in humans, together with Brd-U. Animals are than sacrificed and the number of BrdU-immunoreactive cells in the dentate gyrus is determined in order to measure the generation rate of new cells. Amounts that are capable of increasing the number of newly generated cells are considers as “therapeutically effective amounts” when converted, according to known criteria, to physiologically corresponding amounts in humans.
The function of AMPK activation in the hippocampus was evaluated. […] Mice were treated with bromodeoxyuridine (BrdU) and either saline or 25 nM AICAR (low level stimulation) once daily for 10 days. […] Next, behavioral testing was performed using the eight-arm maze to determine whether there was a concomitant improvement in cognition. […] (FIG. 1C).

[3] = test system: PC-12 cells; experiment: Annexin V FACS analysis of apoptosis in PC-12 cells; type: cell-based; conditions: AICAR, 48 h
Experimental: Cells were grown in 60-mm plates and treated with AICAR for 48 h. Apoptosis was evaluated using the Annexin V FITC Detection Kit (Oncogene Research Products, Cambridge Mass.). Briefly, both attached and floating cells were collected, washed with cold PBS, re-suspended at a density of 5×10^5/ml in 0.5 ml DMEM, stained for annexin V and analyzed by flow cytometry. The apoptotic ratio at 48 h, was also evaluated, by FACS analysis.

[4] = test system: differentiated PC-12 cells; experiment: Viable cell number of differentiated PC-12 cells; type: cell-based; conditions: AICAR 0.125 to 1.0 mM, 96 h
Experimental: PC-12 cells were kindly provided by O. Meyuhas, Dept. of Biochem., Faculty of Medicine, Jerusalem. These cells were grown either in Dulbecco's modified Eagle's medium (DMEM) supplemented with 8% horse serum, 8% fetal bovine serum (FBS), glutamine, and gentamicin or with 1% horse serum, in the presence of nerve growth factor (NGF) (50 ng/ml), which causes the cells to differentiate. Murine leptin was provided by A. Gertler. AICAR was obtained from Toronto Research Chemicals (TRC). To confirm the cellular effects of AMPK in the hippocampus, in-vitro studies on PC-12 cells were also preformed.

[5] = test system: norepinephrine and dopamine in the hippocampus; experiment: Hippocampal catecholamine measurements (HPLC-ECD); type: in vivo, mice; conditions: AICAR 1-2 mM daily for 10 days
Experimental: Control mice received food ad-libitum. Diet-restricted mice received a diet of 57 kCal/week/mouse (2.16 g/day/mouse) as 60% of the requirement, or 38 kCal/week/mouse (1.44 g/day/mouse) for 40%/DR. DR was carried out for 10 days. Behavioral test was performed using the eight-arm spatial maze during the second week of experiment. During the behavioral tests, half of the animals in each group were injected intraperitoneally (i.p) with AICAR (1-2 mM equal to 258-516 mg/kg) or leptin (1 mg/kg) and the other half with saline. Mice were sacrificed by decapitation after the behavioral tests and the hippocampi were frozen at -70° C. Catecholamines were measured as described previously ([…] et al (1996), Brain Res. 732, 133-144. The assays for dopamine and NE were performed by HPLC separation and detection using HPLC-ECD. Values are presented as a concentration (ng/mg tissue).

[6] = test system: mice; experiment: Eight-arm maze, mice ad libitum or diet restricted; type: in vivo
Experimental: Control mice received food ad-libitum. Diet-restricted mice received a diet of 57 kCal/week/mouse (2.16 g/day/mouse) as 60% of the requirement, or 38 kCal/week/mouse (1.44 g/day/mouse) for 40%/DR. DR was carried out for 10 days. Behavioral test was performed using the eight-arm spatial maze during the second week of experiment. […] Mice were sacrificed by decapitation after the behavioral tests and the hippocampi were frozen at −70° C. The animals were placed in an eight-arm maze, which is a scaled-down version of that developed for rats (Randt et al, (1971) Science 172, 489-499; Ziv et al (1994) Neuroscience Lett, 170, 136-140). […] The mice were tested until they made entries into all eight arms or until they completed 24 entries, whichever came first. […] Maze performance was calculated each day for five consecutive days. Results were presented as area under the curve (AUC) utilizing the formula: (day 2+day 3+day 4+day 5)−4*(day 1).

SMILES: NC(=O)c1ncn([C@@H]2O[C@H](CO)[C@@H](O)[C@H]2O)c1N [AICAR, 5-aminoimidazole-4-carboxamide ribonucleoside, reference compound]
- Bax level [1]: up-regulation
- bcl-2 level [1]: reducing
- number of BrdU-immunoreactive cells in the dentate gyrus (generation rate of new cells) [2]: significantly increased
- apoptotic cell death (Annexin V staining) [3]: induces apoptotic cell death in a dose-dependent manner
- number of viable cells [4]: dose-dependent reduction in the number of viable cells, reaching almost total after 96 h
- dopamine concentrations ([5]; p<0.05): elevating
- norepinephrine (NE) concentrations ([5]; p<0.05, 0.01 for the two dosages): decreased
- eight-arm maze performance ([6]; 25 nM AICAR (low level stimulation) vs controls): performed significantly better than the controls
- eight-arm maze performance ([6]; high dose AICAR (1-2 mM) vs ad libitum group, similar to DR to 40%): significant deterioration in maze performance
